In PubChem BioAssay (NCI) one finds TGI and GI50 data, which are given here for 17 compounds.

Holding throughout (assay): DTP human tumour cell line panel, 48 h
The test system of test [1] is A498 renal.
Test [2] relates to BT-549 breast.
Test [3] relates to COLO 205 colon.
Test [4] deals with HOP-92 NSCLC.
Test [5] concerns KM12 colon.
The subject of test [6] is NCI-H23 lung.
For test [7], the system named is PC-3 prostate.
The test system of test [8] is SW-620 colon.
Test [9] relates to TK-10 renal.
The subject of test [10] is UO-31 renal.

The structures appear in SMILES notation.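 All cell lines were grown in 96-well plates and treated with compound for 48 hours. Here, GI50 denotes the concentration required for 50% inhibition of growth. TGI marks complete inhibition of growth.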

Broadly, the TGI is the concentration giving total growth inhibition. Higher therefore signals less potent growth arrest. As a reminder, the GI50 is the concentration that inhibits growth by half.

For `O=C(Nc1ccccc1)OC1OC(COC(=O)c2ccccc2)C(OC(=O)c2ccccc2)C1OS(=O)(=O)c1ccc([N+](=O)[O-])cc1` (stereo not drawn), the TGI in test [1], in test [2], in [3], in test [4], in [5] and in [6] was above 100 µM throughout. Also, the TGI in test [7], in test [8], in [9] and in [10] was above 100 µM in each case.

Take `Cn1c(=O)c(Oc2ccc(F)cc2F)cc2cnc(N[C@@H]3CCOC3)nc21`: the GI50 was above 20400 nM in test [1]; above 25000 nM in [2]; above 25000 nM in test [3]; 8690 nM in [4]; above 25000 nM in test [5]; above 25000 nM in test [6]. In addition, the GI50 is above 25000 nM in [7], above 25 µM in [8], above 25000 nM in [9] and above 11000 nM in test [10]. In addition, the TGI in test [1], in test [2], in [3], in test [4], in test [5] and in test [6] was above 25 µM throughout. Besides, the TGI is above 25 µM in test [7], above 25 µM in [8], above 25 µM in test [9] and above 16.2 µM in test [10].

Turning to `O=C(Nc1cc(F)c(F)cc1C(=O)O)c1ccc(-n2ccnc2)nn1`, the GI50 is 13000 nM in [1]; 81900 nM in test [2]; above 100000 nM in [3]; above 100000 nM in [4]; above 100000 nM in test [5]; above 100000 nM in test [6]. For the same compound, the GI50 was above 100000 nM in test [7], above 100 µM in test [8], above 100000 nM in test [9] and above 100000 nM in test [10]. The TGI in [1] was 82 µM; in [2], above 100 µM; in test [3] it was above 100 µM; in test [4] it was above 100 µM; in test [5], above 100 µM; in test [6], above 100 µM. The TGI in test [7], in test [8], in [9] and in test [10] was above 100 µM in each case.

`CCOC(=O)c1c(C)nc2c(c1N)/C(=C/c1ccccn1)C(=O)N2Cc1ccccc1`: the GI50 was 1540 nM in test [1]; 1110 nM in [2]; 1060 nM in [3]; 903 nM in test [4]; 1150 nM in test [5]; 1290 nM in test [6]. The GI50 was 1170 nM in test [7], 1 µM in test [8], 1510 nM in test [9] and 691 nM in [10]. Further, the TGI was above 50 µM in test [1]; 3.09 µM in [2]; 2.38 µM in [3]; 1.86 µM in [4]; 2.85 µM in test [5]; 4.35 µM in test [6]. The TGI in [7] was 2.64 µM; in test [8] it was 2.31 µM; in [9], above 50 µM; in test [10], 1.37 µM.

As for `CS(=O)(=O)c1cccc(Nc2ncc3cc(-c4ccccc4Cl)ccc3n2)c1`, the GI50 was 1750 nM in test [1]; 2110 nM in [2]; 1190 nM in test [3]; 1300 nM in [4]; 1200 nM in test [5]; 1980 nM in test [6]. The GI50 in [7] is 1790 nM; in [8], 1.78 µM; in test [9], 1900 nM; in test [10], 803 nM. Moreover, the TGI is 12.1 µM in test [1]; 27.8 µM in [2]; 3.13 µM in test [3]; 7.56 µM in test [4]; above 33.3 µM in test [5]; above 33.3 µM in test [6]. For the same compound, the TGI was above 33.3 µM in test [7], above 33.3 µM in test [8], 17.3 µM in test [9] and 6.41 µM in test [10].

Turning to `Cc1ccc(-c2nc(-c3nccc4ccccc34)oc2-c2ccccc2)cc1`, the TGI in test [1], in test [2], in test [3], in test [4], in [5] and in test [6] was above 100 µM throughout. Further, the TGI in test [7], in test [8], in [9] and in [10] was above 100 µM each time.

With `COc1ccc(S(=O)(=O)Nc2c(/C=C\c3cc(OC)c(OC)c(OC)c3)ccc(OC)c2O)cc1`, the GI50 in test [1] is 18.8 nM; in test [2] it was 50.1 nM; in [3], 406 nM; in test [4], 1600 nM; in [5], 35.5 nM; in [6] it was 52 nM. In addition, the GI50 in test [7] is 40.8 nM; in test [8] it was 0.0408 µM; in test [9], 73.2 nM; in [10], 61.9 nM. Besides, the TGI in test [1] was 0.085 µM; in [2], 47 µM; in test [3], 1.91 µM; in test [4] it was 39.7 µM; in test [5], above 100 µM; in test [6], above 100 µM. Besides, the TGI in test [7] was above 100 µM; in test [8], above 100 µM; in test [9] it was 59.1 µM; in test [10] it was 62.4 µM.

In the case of `Oc1ccc2ccccc2c1C=NCc1c(O)ccc2ccccc12`, the TGI is 74.5 µM in test [1]; above 100 µM in [2]; above 100 µM in test [3]; above 100 µM in [4]; above 100 µM in test [5]; above 100 µM in test [6]. Moreover, the TGI in test [7], in [8], in test [9] and in test [10] was above 100 µM throughout.

For `O=C(Nc1cc(Cl)ccc1O)c1ccccc1Nc1ccnc(C(F)(F)F)c1`, the GI50 in test [1] was 2250 nM; in test [2], 2460 nM; in test [3], 2380 nM; in test [4], 2580 nM; in test [5], 2740 nM; in test [6] it was 2630 nM. The GI50 was 2840 nM in test [7], 3.15 µM in [8] and 4720 nM in test [9]. For the same compound, the TGI stood at 6.4 µM in test [1]; 7.95 µM in test [2]; 5.4 µM in [3]; 8.72 µM in test [4]; 8.13 µM in [5]; 9.19 µM in [6]. The TGI in [7] is above 100 µM; in [8] it was 11.7 µM; in test [9], 16.8 µM.

In the case of `O=C(Nc1cc(Cl)ccc1O)c1cccc(Nc2ccnc(C(F)(F)F)c2)c1`, the GI50 in [1] is 3280 nM; in test [2], 2180 nM; in test [3] it was 3180 nM; in [4] it was 2270 nM; in [5], 3680 nM; in [6] it was 771 nM. In addition, the GI50 in [7] is 2290 nM; in test [8], 4.32 µM; in test [9], 4510 nM; in test [10], 2300 nM. Also, the TGI worked out at 13.4 µM in test [1]; 12.6 µM in [2]; 15 µM in test [3]; 10.9 µM in [4]; 14.4 µM in test [5]; 7.74 µM in test [6]. The TGI in [7] came out at 11.6 µM; in test [8] it was 18.5 µM; in test [9], 19.8 µM; in test [10] it was 11.3 µM.

As to `O=C1Cc2cc(CCn3cncn3)c(Cl)cc2N1`, the GI50 in test [1] is 32500 nM; in test [2], 8720 nM; in [3], 23300 nM; in test [4], 3020 nM; in [5], 5420 nM; in [6], above 100000 nM. The GI50 in test [7] is above 100000 nM; in test [8], 6.6 µM; in test [9] it was above 100000 nM; in test [10], above 100000 nM. Besides, the TGI in test [1], in [2], in [3], in test [4], in [5] and in test [6] was above 100 µM in each case. Besides, the TGI in test [7], in test [8], in [9] and in [10] was above 100 µM throughout.

Turning to `COc1ccccc1[As]=[As]c1ccccc1OC` (stereo not drawn), the GI50 in test [1] is 62.2 nM; in test [2], 58.2 nM; in [3], 20.9 nM; in [4], 102 nM; in test [5], 110 nM; in test [6], 65.3 nM. Further, the GI50 is 61.9 nM in test [7], 0.0182 µM in [8], 40.1 nM in test [9] and 92.3 nM in test [10]. Moreover, the TGI in test [1] stood at 0.184 µM; in test [2], 0.182 µM; in test [3], 0.0475 µM; in test [4] it was 0.228 µM; in test [5] it was 0.24 µM; in test [6], 0.204 µM. Further, the TGI in test [7] stood at 0.195 µM; in [8], 0.0403 µM; in test [9] it was 0.141 µM; in test [10] it was 0.24 µM.

As to `CCC(C)C1=C(O)[N+]2([O-])Oc3ccc(C4=C(O)C(=O)C(c5ccc(O)cc5)=C(O)C4=O)cc3OC2(C(C)CC)C(=O)N1O` (stereo not drawn), the GI50 in test [1] is 5240 nM; in test [2], 8740 nM; in test [3], 12600 nM; in test [4] it was 9290 nM; in [5], 40300 nM; in test [6], 13300 nM. Moreover, the GI50 is 6140 nM in [7], 25.4 µM in test [8], 3410 nM in [9] and 22200 nM in test [10]. Moreover, the TGI in test [1] was 41.9 µM; in test [2], above 100 µM; in [3], above 100 µM; in test [4] it was above 100 µM; in test [5], above 100 µM; in [6], above 100 µM. In addition, the TGI in test [7], in test [8], in [9] and in [10] was above 100 µM each time.

Regarding `c1ccc(Oc2ccc(Nc3ncc(-c4ccccc4)o3)cc2)cc1`, the GI50 is above 25000 nM in [1]; above 25000 nM in test [2]; above 25000 nM in test [3]; 23900 nM in test [4]; above 25000 nM in test [5]; above 25000 nM in [6]. The GI50 in [7] is above 25000 nM; in test [8], above 25 µM; in test [9], above 25000 nM; in test [10] it was above 25000 nM. Also, the TGI in test [1], in test [2], in [3], in test [4], in test [5] and in [6] was above 25 µM in each case. For the same compound, the TGI in [7], in test [8], in test [9] and in test [10] was above 25 µM in each case.

Regarding `CCCCOc1ccc(/C=N/Nc2cc(C)nc3ccc(Br)cc23)cc1`, the GI50 was 1480 nM in test [1]; 1770 nM in test [2]; 1850 nM in [3]; 1540 nM in test [4]; 1950 nM in test [5]; 1860 nM in test [6]. Also, the figures for the GI50 in [7], in [9] and in test [10] were 1750 nM, 1910 nM and 1480 nM, respectively. In addition, the TGI in [1] was found to be 2.85 µM; in test [2], 3.42 µM; in test [3] it was 3.47 µM; in test [4], 3.11 µM; in test [5] it was 3.85 µM; in test [6], 3.76 µM. Further, the values for the total growth inhibition concentration (TGI) in test [7], in test [9] and in test [10] were 3.37 µM, 3.31 µM and 2.82 µM, respectively.

In the case of `Cc1c2ccncc2c(C)c2c1sc1ccccc12`, the concentration for total growth inhibition (TGI) turned out to be 23.1 µM in test [1]; 35.9 µM in test [2]; 26.9 µM in [3]; 28.5 µM in test [4]; 31.2 µM in [5]; 25.2 µM in [6]. Further, the TGI in test [7] was 26.4 µM; in [8], 22.1 µM; in test [9] it was 48.9 µM.

Regarding `CCN1C(=O)N(CC)C2C1NN=c1s/c(=C3\C(=O)N(C4CCCC4)c4ccccc43)c(=O)n12` (stereo not drawn), the GI50 in test [1] was 198 nM; in [2], 2030 nM; in test [3], 1890 nM; in test [4], 1210 nM; in [5] it was 689 nM; in [6], 2490 nM. In addition, the GI50 in test [7] is 1150 nM; in [8], 0.551 µM; in test [9], 2780 nM. The TGI is 0.854 µM in test [1]; 7.84 µM in test [2]; 12.2 µM in [3]; 6.4 µM in test [4]; above 100 µM in test [5]; 13.5 µM in test [6]. In addition, the total growth inhibition concentration (TGI) was above 100 µM in test [7], above 100 µM in test [8] and 9.89 µM in test [9].
